Experimental data as given in PubChem BioAssay (NCI).
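Method: 48-hour compound exposure of cells in 96-well plates, five concentrations, linear interpolation of endpoints. GI50 marks 50% less growth. TGI denotes the concentration required for complete inhibition of growth.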

Experiments:
Assay in all cases: NCI tumour cell line growth inhibition, 48 h
SNB-78 CNS = system: SNB-78 CNS
LXFL 529 NSCLC = system: LXFL 529 NSCLC
P388 leukemia = system: P388 leukemia
SN12K1 renal = system: SN12K1 renal
HOP-18 NSCLC = system: HOP-18 NSCLC
MDA-MB-231 breast = system: MDA-MB-231 breast
PC-3 prostate = system: PC-3 prostate
MDA-MB-435 = system: MDA-MB-435
MDA-N = system: MDA-N
DU-145 prostate = system: DU-145 prostate
T-47D breast = system: T-47D breast
BT-549 breast = system: BT-549 breast
P388/ADR leukemia = system: P388/ADR leukemia
RXF-631 renal = system: RXF-631 renal

CCCCCCCCC[C@@H]1C[C@H](O)[C@H](Cc2ccccc2)N1C(=O)OC(C)(C)C
TGI (SNB-78 CNS): 41.3 µM | TGI (LXFL 529 NSCLC): 30.9 µM

O=c1n(CC2CO2)c2ccccc2n1CC1CS1 (stereo not given)
TGI (LXFL 529 NSCLC): > 100 µM

O=[N+]([O-])c1cnccc1-n1nnc2ccccc21
TGI (P388 leukemia): 30.3 µM | TGI (SN12K1 renal): > 95.5 µM | TGI (SNB-78 CNS): > 100 µM | TGI (HOP-18 NSCLC): > 100 µM

c1ccc2c(CCNC3=NCCO3)cccc2c1
TGI (MDA-MB-231 breast): > 10 µM | TGI (PC-3 prostate): > 10 µM | TGI (MDA-MB-435): > 10 µM | TGI (MDA-N): > 10 µM | TGI (DU-145 prostate): > 10 µM | TGI (T-47D breast): > 10 µM

O=C(O)c1cc2sc(C(=O)O)cc2s1
TGI (SNB-78 CNS): > 100 µM | TGI (LXFL 529 NSCLC): > 100 µM

O=[N+]([O-])c1ccc(N/N=C\c2ccc(O)cc2O)nc1
GI50 (BT-549 breast): 6.06 µM | TGI (BT-549 breast): > 100 µM | GI50 (MDA-MB-231 breast): 2.1 µM | TGI (MDA-MB-231 breast): > 100 µM | GI50 (PC-3 prostate): 5.73 µM | TGI (PC-3 prostate): > 100 µM | GI50 (MDA-MB-435): 3.14 µM | TGI (MDA-MB-435): > 100 µM | GI50 (DU-145 prostate): 1.77 µM | TGI (DU-145 prostate): > 100 µM | GI50 (T-47D breast): 4.04 µM | TGI (T-47D breast): > 100 µM

Nc1[nH]nc2c1Cc1c(n(Cc3ccc(Cl)cc3)c3ccccc13)C(=O)N2
TGI (BT-549 breast): 36.6 µM | TGI (MDA-MB-231 breast): 30.6 µM | TGI (PC-3 prostate): 23.5 µM | TGI (MDA-MB-435): 16.5 µM | TGI (DU-145 prostate): 24.4 µM | TGI (T-47D breast): 28.9 µM

CC(=O)Nc1ccc(C(=O)NN2C(=O)C(Cl)C2/C=C/c2ccccc2)cc1 (stereo not given)
TGI (LXFL 529 NSCLC): > 100 µM | TGI (HOP-18 NSCLC): > 100 µM

CSc1nc(NC2OC(CO)C(O)C(O)C2O)c(N)c(=O)[nH]1 (stereo not given)
TGI (P388 leukemia): > 100 µM | TGI (P388/ADR leukemia): > 100 µM | TGI (SN12K1 renal): > 100 µM | TGI (SNB-78 CNS): > 100 µM | TGI (HOP-18 NSCLC): > 100 µM

COC(=O)C(Cc1cc(OC)c(OC)c(OC)c1)(NC(=O)c1ccccc1)P(=O)(OC)OC (stereo not given)
TGI (RXF-631 renal): > 100 µM | TGI (SNB-78 CNS): > 100 µM | TGI (LXFL 529 NSCLC): > 100 µM

O=C1CN2CCN(CC2)CC(=O)Nc2ccc(cc2)S(=O)(=O)c2ccc(cc2)NC(=O)CN2CCN(CC2)CC(=O)Nc2ccc(cc2)S(=O)(=O)c2ccc(cc2)N1
TGI (BT-549 breast): > 87.9 µM | TGI (MDA-MB-231 breast): 43.1 µM | TGI (PC-3 prostate): > 100 µM | TGI (MDA-MB-435): > 89.7 µM | TGI (MDA-N): > 100 µM | TGI (DU-145 prostate): > 100 µM | TGI (T-47D breast): > 100 µM
